For orientation: pKa means the negative logarithm of the acid dissociation constant.

Data on 2 molecules can be found in article PMC2700827 (Journal of the American Chemical Society, 2008).

The conditions of data set [1]: phenol pKa given in Figure 5 legend, source not given.
For data set [2] the following is noted: hydrogen bond acceptor; cited from earlier work.

Read-outs that look alike come from different tables or passages of the source.

For `Oc1c(F)cc(F)cc1F` [2,4,6-F3-phenol], in data set [1], the pKa was 7.2.

On to `O=[N+]([O-])c1cc[n+]([O-])cc1` [4-nitropyridine-N-oxide], for which the pKa in data set [2] is listed as −1.7.
